Consider 38 compounds from ChEMBL document CHEMBL1136358, “Discovery and initial SAR of 2-amino-5-carboxamidothiazoles as inhibitors of the Src-family kinase p56(Lck)” (Bioorg Med Chem Lett, 2003).

The target in assay [1] is T1, Tyrosine-protein kinase Lck (Homo sapiens, UniProt P06239).
Description: Inhibitory activity human Lck(hLck) kinase
Assay [2] addresses T2, Proto-oncogene tyrosine-protein kinase LCK (Mus musculus, UniProt P06240). As to the kind of experiment: In vitro inhibition of murine Lck kinase.
Assay [3] concerns the target T1, Tyrosine-protein kinase Lck. As to the kind of experiment: Inhibition of human p56 Lck tyrosine kinase.
In assay [4] the target is T2, Proto-oncogene tyrosine-protein kinase LCK. As to the kind of experiment: Inhibition of mouse p56 Lck tyrosine kinase.
Assay [5] shares this target. As to the kind of experiment: Inhibition of mouse Lck(mLck) kinase at 50 uM (Inactive).
In assay [6] the target is T1, Tyrosine-protein kinase Lck. As to the kind of experiment: Inhibition of human Lck(hLck) kinase at 50 uM (Inactive).
In assay [7] the target is Cyclin-dependent kinase 2 (Homo sapiens, UniProt P24941). As to the kind of experiment: Inhibition of CDK2 kinase.
Assay [8] concerns the target Fibroblast growth factor receptor (Homo sapiens, UniProt P22607+P11362+P22455+P21802). As to the kind of experiment: Inhibition of FGF receptor. The format is protein assay.
Another assay has as its target Focal adhesion kinase 1 (Homo sapiens, UniProt Q05397). As to the kind of experiment: Inhibition of FAK kinase.
The target in assay [9] is Tyrosine-protein kinase Fyn (Homo sapiens, UniProt P06241). As to the kind of experiment: Inhibition of Fyn kinase.
Assay [10] concerns the target Receptor tyrosine-protein kinase erbB-2 (Homo sapiens, UniProt P04626). As to the kind of experiment: Inhibition of HER2 kinase.
Assay [11] has as its target Tyrosine-protein kinase HCK (Homo sapiens, UniProt P08631). As to the kind of experiment: Inhibition of Hck kinase.
In assay [12] the target is T3, Tyrosine-protein kinase JAK3 (Homo sapiens, UniProt P52333).
T3 sequence (P52333 whole entry): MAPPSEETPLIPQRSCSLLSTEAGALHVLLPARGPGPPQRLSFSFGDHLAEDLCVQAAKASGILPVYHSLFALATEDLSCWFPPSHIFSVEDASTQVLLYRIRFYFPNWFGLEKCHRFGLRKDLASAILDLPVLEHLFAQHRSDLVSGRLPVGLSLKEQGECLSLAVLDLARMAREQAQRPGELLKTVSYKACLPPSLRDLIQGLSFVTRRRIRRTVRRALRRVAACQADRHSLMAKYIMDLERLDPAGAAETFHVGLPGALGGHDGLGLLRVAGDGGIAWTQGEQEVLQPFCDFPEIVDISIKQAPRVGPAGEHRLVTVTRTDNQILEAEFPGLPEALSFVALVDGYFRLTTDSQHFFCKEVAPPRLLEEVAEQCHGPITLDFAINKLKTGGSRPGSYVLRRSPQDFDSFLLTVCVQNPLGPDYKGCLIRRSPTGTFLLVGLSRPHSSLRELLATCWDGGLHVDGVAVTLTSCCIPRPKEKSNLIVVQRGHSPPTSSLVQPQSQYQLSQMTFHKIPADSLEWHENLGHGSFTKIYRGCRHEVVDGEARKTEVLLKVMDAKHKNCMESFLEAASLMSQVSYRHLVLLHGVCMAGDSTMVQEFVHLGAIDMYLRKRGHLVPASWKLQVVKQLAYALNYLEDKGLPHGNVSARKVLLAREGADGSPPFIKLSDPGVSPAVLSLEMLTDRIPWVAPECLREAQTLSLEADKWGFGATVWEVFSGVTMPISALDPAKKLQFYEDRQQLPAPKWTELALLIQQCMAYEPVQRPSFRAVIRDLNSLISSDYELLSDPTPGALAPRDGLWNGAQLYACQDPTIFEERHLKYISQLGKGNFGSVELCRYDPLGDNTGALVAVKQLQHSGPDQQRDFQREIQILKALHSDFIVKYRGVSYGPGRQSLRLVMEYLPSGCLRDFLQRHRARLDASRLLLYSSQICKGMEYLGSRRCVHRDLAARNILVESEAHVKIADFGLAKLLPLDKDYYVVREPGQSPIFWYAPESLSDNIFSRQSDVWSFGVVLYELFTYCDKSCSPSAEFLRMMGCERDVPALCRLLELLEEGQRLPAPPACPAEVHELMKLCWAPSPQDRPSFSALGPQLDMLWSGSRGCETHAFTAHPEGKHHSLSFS
As to the kind of experiment: Inhibition of Jak3 kinase.

Assay [13] deals with Proto-oncogene tyrosine-protein kinase Src (Homo sapiens, UniProt P12931). As to the kind of experiment: Inhibition of Src kinase.
The target of assay [14] is T1, Tyrosine-protein kinase Lck. As to the kind of experiment: Inhibition of Lck kinase.
Assay [15] shares this target. As to the kind of experiment: Inhibition of human Lck(hLck) kinase.

pIC50: −log10 of the molar value.

T1 sequence (P06239 whole entry): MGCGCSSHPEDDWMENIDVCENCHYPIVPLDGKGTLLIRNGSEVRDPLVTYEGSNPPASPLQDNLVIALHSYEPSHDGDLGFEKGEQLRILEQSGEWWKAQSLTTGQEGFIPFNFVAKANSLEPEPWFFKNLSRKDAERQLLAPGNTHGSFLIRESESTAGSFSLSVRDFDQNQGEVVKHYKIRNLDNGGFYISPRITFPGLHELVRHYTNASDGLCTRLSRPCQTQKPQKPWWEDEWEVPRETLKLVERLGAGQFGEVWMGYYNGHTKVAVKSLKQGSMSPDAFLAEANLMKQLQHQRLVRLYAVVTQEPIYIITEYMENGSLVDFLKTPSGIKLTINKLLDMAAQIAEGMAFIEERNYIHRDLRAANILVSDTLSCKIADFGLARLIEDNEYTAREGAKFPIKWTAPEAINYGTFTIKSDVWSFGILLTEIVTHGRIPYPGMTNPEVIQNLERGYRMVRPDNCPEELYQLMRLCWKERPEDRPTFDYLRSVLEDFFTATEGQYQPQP
T2 sequence (P06240 whole entry): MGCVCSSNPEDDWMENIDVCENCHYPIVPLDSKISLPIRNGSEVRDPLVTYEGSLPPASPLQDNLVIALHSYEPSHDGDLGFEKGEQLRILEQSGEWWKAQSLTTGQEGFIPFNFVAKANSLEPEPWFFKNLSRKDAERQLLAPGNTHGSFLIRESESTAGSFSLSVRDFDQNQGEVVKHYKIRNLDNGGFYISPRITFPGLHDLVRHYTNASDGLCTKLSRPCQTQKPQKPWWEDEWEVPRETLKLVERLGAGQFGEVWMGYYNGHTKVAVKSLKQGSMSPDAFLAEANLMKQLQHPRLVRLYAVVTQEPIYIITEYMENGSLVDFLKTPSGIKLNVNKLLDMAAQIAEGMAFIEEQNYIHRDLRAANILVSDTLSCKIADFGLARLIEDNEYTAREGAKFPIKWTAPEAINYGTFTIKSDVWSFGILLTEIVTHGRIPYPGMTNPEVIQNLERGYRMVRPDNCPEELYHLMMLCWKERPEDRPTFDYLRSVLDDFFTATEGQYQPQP
Chain of Tyrosine-protein kinase Fyn (P06241 whole entry): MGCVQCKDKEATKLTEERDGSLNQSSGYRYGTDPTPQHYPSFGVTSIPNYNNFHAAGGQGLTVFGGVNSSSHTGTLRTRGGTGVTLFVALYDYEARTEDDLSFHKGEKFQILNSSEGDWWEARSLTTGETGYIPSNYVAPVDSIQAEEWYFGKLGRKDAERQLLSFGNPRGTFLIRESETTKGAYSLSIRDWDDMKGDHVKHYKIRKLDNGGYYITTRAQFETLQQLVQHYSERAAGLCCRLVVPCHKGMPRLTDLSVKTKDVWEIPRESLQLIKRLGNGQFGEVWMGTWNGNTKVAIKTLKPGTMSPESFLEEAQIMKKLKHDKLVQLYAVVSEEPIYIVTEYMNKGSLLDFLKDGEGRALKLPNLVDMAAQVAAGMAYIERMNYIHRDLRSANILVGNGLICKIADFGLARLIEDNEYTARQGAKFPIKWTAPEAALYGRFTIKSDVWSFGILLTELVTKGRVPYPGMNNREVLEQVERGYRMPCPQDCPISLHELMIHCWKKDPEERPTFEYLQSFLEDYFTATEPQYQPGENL
Chain of Focal adhesion kinase 1 (Q05397 whole entry): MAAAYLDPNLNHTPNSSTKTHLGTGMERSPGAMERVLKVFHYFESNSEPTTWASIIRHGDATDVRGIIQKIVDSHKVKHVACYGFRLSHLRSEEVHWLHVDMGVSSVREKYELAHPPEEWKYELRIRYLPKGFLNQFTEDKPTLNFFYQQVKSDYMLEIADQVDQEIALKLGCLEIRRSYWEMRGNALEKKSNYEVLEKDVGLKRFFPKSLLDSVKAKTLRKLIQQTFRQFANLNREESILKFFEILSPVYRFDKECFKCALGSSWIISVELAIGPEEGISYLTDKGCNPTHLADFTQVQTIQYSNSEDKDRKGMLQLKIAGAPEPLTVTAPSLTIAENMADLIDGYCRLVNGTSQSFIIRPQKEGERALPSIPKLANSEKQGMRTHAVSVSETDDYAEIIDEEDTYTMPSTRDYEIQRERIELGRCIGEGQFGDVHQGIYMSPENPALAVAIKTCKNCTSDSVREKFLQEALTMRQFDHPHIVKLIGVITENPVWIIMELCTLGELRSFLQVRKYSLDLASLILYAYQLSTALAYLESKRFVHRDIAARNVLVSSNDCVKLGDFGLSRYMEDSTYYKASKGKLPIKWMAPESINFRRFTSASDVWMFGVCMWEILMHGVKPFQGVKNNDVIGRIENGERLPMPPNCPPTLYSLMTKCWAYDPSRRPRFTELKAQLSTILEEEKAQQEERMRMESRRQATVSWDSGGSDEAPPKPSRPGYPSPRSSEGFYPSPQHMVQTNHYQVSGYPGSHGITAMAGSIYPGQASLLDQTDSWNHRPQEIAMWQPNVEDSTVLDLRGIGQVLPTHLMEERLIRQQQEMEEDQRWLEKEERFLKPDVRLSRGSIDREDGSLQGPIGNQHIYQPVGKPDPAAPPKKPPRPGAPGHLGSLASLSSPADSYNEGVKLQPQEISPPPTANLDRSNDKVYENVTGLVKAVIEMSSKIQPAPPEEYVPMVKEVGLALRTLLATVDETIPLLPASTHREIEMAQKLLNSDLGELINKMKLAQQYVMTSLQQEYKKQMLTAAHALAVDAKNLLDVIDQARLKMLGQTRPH
Chain of Proto-oncogene tyrosine-protein kinase Src (P12931 2-536 limits assumed): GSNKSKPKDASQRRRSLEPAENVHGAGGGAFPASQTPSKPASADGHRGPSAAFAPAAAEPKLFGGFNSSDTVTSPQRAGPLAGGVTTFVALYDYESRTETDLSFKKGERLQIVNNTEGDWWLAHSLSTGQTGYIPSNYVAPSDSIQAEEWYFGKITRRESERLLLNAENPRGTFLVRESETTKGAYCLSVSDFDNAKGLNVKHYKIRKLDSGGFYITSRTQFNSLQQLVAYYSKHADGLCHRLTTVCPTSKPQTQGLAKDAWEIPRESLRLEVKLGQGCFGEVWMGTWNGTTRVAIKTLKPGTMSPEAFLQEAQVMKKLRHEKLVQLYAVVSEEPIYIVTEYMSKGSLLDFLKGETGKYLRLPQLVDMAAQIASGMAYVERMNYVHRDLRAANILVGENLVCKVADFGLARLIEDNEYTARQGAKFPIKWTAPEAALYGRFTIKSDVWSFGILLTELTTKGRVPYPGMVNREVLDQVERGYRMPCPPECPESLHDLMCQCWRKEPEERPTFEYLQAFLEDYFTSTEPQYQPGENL
Chain of Receptor tyrosine-protein kinase erbB-2 (P04626 whole entry): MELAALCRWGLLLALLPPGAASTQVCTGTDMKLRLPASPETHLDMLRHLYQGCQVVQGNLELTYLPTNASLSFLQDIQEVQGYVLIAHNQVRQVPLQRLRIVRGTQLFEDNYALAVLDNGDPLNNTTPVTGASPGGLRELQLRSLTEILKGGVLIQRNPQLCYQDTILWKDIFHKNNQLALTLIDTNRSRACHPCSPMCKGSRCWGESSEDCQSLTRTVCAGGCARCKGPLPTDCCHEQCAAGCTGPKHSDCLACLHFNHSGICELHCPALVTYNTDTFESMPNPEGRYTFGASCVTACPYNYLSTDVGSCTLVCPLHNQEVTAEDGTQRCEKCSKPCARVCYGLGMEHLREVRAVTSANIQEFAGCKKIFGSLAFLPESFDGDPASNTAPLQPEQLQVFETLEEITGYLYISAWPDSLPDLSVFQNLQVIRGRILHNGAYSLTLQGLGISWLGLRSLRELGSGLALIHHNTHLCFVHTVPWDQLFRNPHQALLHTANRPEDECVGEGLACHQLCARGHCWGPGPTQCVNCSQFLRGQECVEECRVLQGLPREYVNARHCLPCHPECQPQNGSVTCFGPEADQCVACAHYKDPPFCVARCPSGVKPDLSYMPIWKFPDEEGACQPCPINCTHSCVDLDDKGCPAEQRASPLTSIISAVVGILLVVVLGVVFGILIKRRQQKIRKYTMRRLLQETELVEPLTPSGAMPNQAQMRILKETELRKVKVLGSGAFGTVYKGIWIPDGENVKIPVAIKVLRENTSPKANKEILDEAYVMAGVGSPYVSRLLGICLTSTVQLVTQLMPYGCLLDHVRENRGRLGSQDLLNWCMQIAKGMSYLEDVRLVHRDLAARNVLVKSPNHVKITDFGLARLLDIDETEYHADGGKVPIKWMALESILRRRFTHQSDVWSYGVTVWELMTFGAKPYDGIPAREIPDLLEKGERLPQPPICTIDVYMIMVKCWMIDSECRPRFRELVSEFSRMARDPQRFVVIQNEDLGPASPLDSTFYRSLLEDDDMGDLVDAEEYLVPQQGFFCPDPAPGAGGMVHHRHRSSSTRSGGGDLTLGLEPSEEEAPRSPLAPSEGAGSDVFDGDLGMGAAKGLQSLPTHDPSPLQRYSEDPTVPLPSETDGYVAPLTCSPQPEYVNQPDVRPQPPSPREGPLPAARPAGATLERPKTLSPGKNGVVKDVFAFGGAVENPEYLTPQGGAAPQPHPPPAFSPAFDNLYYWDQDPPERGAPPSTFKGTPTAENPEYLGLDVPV
Chain of Tyrosine-protein kinase HCK (P08631 whole entry): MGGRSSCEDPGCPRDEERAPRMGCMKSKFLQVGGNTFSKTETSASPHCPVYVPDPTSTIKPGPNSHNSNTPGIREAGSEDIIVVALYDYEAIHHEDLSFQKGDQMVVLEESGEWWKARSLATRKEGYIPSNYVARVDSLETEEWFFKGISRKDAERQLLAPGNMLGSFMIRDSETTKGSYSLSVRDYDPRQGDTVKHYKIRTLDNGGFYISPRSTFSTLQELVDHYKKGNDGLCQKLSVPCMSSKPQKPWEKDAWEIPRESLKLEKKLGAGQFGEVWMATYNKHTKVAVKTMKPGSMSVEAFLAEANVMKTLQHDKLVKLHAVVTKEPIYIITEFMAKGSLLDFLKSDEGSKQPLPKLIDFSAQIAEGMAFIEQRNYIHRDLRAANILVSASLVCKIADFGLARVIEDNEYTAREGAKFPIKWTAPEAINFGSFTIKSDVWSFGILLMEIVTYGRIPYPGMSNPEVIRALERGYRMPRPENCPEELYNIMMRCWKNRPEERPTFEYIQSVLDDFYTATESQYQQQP

For orientation: pIC50 means the IC50 on a negative log10 scale, so that one unit is a factor of ten. Lower therefore signals a high IC50. In assay [1], `Cc1cccc(Cl)c1NC(=O)c1sc(NC(=O)c2ccco2)nc1C` had a negative logarithm of the IC50 (pIC50) of 6.15.

In turn, `Cc1cccc(Cl)c1NC(=O)c1sc(NC(=O)C2CC2)nc1C` had a pIC50 in [1] of 5.85. In assay [2], `Cc1cc(NC(=O)c2sc(NC(=O)OC(C)(C)C)nc2C)c(C)[nH]1` gave a negative logarithm of the IC50 (pIC50) of less than 4.30. On the same count and under the same terms, the result for `Cc1ccccc1NC(=O)c1sc(NC(=O)OC(C)(C)C)nc1C` reads 4.34.

Turning to `Cc1cc(C)c(NC(=O)c2sc(NC(=O)OC(C)(C)C)nc2C(F)(F)F)c(C)c1`, the pIC50 in [1] was less than 4.52. For `COC(=O)Nc1nc(C)c(C(=O)Nc2c(C)cc(C)cc2C)s1`, the negative logarithm of the IC50 (pIC50) in [2] was 6.14; in assay [1], 6.15. In assay [2], `Cc1nc(NC(=O)OC(C)(C)C)sc1C(=O)NCC(C)(C)C` gave a pIC50 of less than 4.30. Turning to `Cc1cccc(C)c1NC(=O)c1sc(NC(=O)OC(C)(C)C)nc1C`, the pIC50 is 5.36 in assay [3] and 5.12 in assay [4]. In assay [2], `Cc1nc(NC(=O)OC(C)(C)C)sc1C(=O)N1CCN(C=O)CC1` gave a pIC50 of less than 4.30. On to `CCCCNC(=O)Nc1nc(C)c(C(=O)Nc2c(C)cccc2Cl)s1`, for which the negative-log IC50 (pIC50) in [1] is 6.21. The same measure, in the same setting: the result for `Cc1cc(C)c(NC(=O)c2cnc(NC(=O)OC(C)(C)C)s2)c(C)c1` reads less than 4.52. In the case of `Cc1cc(C)c(NC(=O)c2sc(NC(=O)c3ccccc3)nc2C)c(C)c1`, the pIC50 in [2] is 6.49; in assay [1], 6.10. Compound `COc1cc(NC(=O)c2sc(NC(=O)OC(C)(C)C)nc2C)cc(C(F)(F)F)c1` had a negative-log IC50 (pIC50) in [2] of less than 4.30. In turn, `CCc1nc(NC(=O)OC(C)(C)C)sc1C(=O)Nc1c(C)cc(C)cc1C` had a pIC50 in assay [1] of less than 4.52.

Take `Cc1nc(NC(=O)OC(C)(C)C)sc1C(=O)NC(C)C(C)C` (centres undefined): the pIC50 in assay [2] and in [1] was less than 4.30 each time. `CCCCNC(=O)Nc1nc(C)c(C(=O)Nc2c(C)cc(C)cc2C)s1`: the pIC50 in [2] is 7.15; in [1] it was 7.52.

A word on the IC50: it is the concentration at which inhibition is half-maximal. With `Cc1cc(C)c(NC(=O)c2sc(N(C)C(=O)OC(C)(C)C)nc2C)c(C)c1`, the IC50 result in assay [5] and in [6] was “Not Active” each time.

For `Cc1cccc(Cl)c1NC(=O)c1cnc(NC(=O)c2ccccc2)s1`, in assay [1], the pIC50 is 6.05.

`Cc1cccc(Cl)c1NC(=O)c1cnc(NC(=O)C2CC2)s1`: the pIC50 in assay [7] was less than 4.60; at Focal adhesion kinase 1 it was less than 4.60; in assay [9] it was 7.15; in assay [10], less than 4.60; in assay [11], 6.51; in assay [12], 7.36. Besides, the negative logarithm of the IC50 (pIC50) in [13] is 8.00; in assay [14], 7.46; in assay [1], 7.46. The concentration for half-maximal inhibition (IC50) in assay [8] is more than 25000 nM.

In [1], `Cc1cc(C)c(NC(=O)c2sc(NC(=O)c3ccco3)nc2C)c(C)c1` had a pIC50 of 6.44.

Compound `COc1cccc(C)c1NC(=O)c1sc(NC(=O)OC(C)(C)C)nc1C` gave a negative-log IC50 (pIC50) in assay [2] of 4.61. Take `Cc1nc(NC(=O)OC(C)(C)C)sc1C(=O)Nc1c(Cl)cccc1Cl`: the negative-log IC50 (pIC50) in assay [15] was 4.90. As to `Cc1cc(C)c(NC(=O)c2sc(N)nc2C)c(C)c1`, the pIC50 was 5.30 in [3] and 5.18 in assay [4].

For the compound `Cc1cccc(Cl)c1NC(=O)c1sc(NC(=O)OC(C)(C)C)nc1C`, the pIC50 in assay [3] is 4.55; in assay [4], 5.02. `Cc1nc(NC(=O)OC(C)(C)C)sc1C(=O)Nc1c(C(C)C)cccc1C(C)C` had a pIC50 in assay [2] of less than 4.30. `Cc1cccc(C(C)C)c1NC(=O)c1sc(NC(=O)OC(C)(C)C)nc1C` gave a pIC50 in assay [2] of 4.39. Same read-out and setting: the figure for `Cc1nc(NC(=O)OC(C)(C)C)sc1C(=O)Nc1ccc(Cl)cc1Cl` is less than 4.30. `Cc1cccc(Cl)c1NC(=O)c1sc(NC(=O)c2ccccc2)nc1C` gave a pIC50 in assay [1] of 5.35. With `CNC(=O)Nc1nc(C)c(C(=O)Nc2c(C)cc(C)cc2C)s1`, the pIC50 in assay [2] was 6.77; in assay [1], 6.62. On to `Cc1cccc(C(C)(C)C)c1NC(=O)c1sc(NC(=O)OC(C)(C)C)nc1C`, for which the pIC50 in assay [2] was less than 4.30. Consider `Cc1cc(C)c(NC(=O)c2cnc(NC(=O)C3CC3)s2)c(C)c1`, for which the pIC50 in assay [1] was 7.74. Take `Cc1cc(Br)cc(C)c1NC(=O)c1sc(NC(=O)OC(C)(C)C)nc1C`: the negative-log IC50 (pIC50) in [3] is 5.85; in [4], 5.62. `Cc1cc(C)c(NC(=O)c2sc(NC(=O)OC(C)(C)C)nc2-c2ccccc2)c(C)c1` showed a negative-log IC50 (pIC50) in assay [1] of less than 4.52. Turning to `Cc1nc(NC(=O)OC(C)(C)C)sc1C(=O)NCC1CCCCC1`, the pIC50 in [2] was less than 4.30.

`Cc1nc(NC(=O)OC(C)(C)C)sc1C(=O)Nc1ccccc1[N+](=O)[O-]` showed a negative-log IC50 (pIC50) in assay [2] of less than 4.30. In assay [2], `Cc1nc(NC(=O)OC(C)(C)C)sc1C(=O)Nc1ccccc1` gave a negative-log IC50 (pIC50) of less than 4.30. As for `Cc1cc(C)c(N(C)C(=O)c2sc(NC(=O)OC(C)(C)C)nc2C)c(C)c1`, the half-maximal inhibitory concentration (IC50) result in assay [5] and in assay [6] was “Not Active” throughout. For the compound `Cc1cc(C)c(NC(=O)c2sc(NC(=O)OC(C)(C)C)nc2C)c(C)c1`, the negative-log IC50 (pIC50) is 5.82 in assay [3] and 5.52 in assay [4].
